According to patent US20240374535A1, “COMPOSITIONS AND METHODS FOR TREATING BIOFILM DISORDERS AND INFECTIONS” (AHV International B.V., priority 2021, published 2024):
Read-outs that look alike come from different tables or passages of the source.

Key:
[1] = tested on: Pseudomonas aeruginosa ATCC 27853 biofilm; experiment: MBEC assay (biofilm eradication, CFU log reduction); assay type: cell-based, P. aeruginosa; conditions: for minimal effective concentration: Pseudomonas aeruginosa, read-out: P. aeruginosa MBEC mM with log reduction ≥1
Description: (§1) The exact weighed amount was noted and the volume of solvent to reach a 80 mM dilution calculated. Half of the volume was added first, by adding Tween 80. In a second step, the other half of the volume DMSO was added and the closed tube inverted 5-10 times and then vortexed very thoroughly for at least 30 seconds. If after this procedure unsolved material was still visible, the tube was placed in a shaker at 37° C. at 150 rpm for at least 30 minutes. […] For the MBEC assay (method 1.3) the solution needs to be diluted to a final concentration of 2 mM in 0.9% saline solution and then further diluted to 1 mM, 0.5 mM, 0.25 mM and 0.125 mM in saline. Those dilutions were added as treatment to the 96 well plates with the grown biofilm (see method 3).
(§2) Frozen aliquots of Staphylococcus epidermis ATCC 35984 and Pseudomonas aeruginosa ATCC 27853 were used to inoculate 20 mL of Tryptic Soy Broth (TSB) in a 100 mL Erlenmeyer flask at 37° C. and 150 rpm and incubated overnight (Infors). The OD600 of the overnight culture was measured with a spectrophotometer (Evolution™ 201/220 UV-Visible Spectrophotometer, Thermo Fisher Scientific) and diluted to an OD600 of 0.2, which resembles 10^8 CFU/mL. The cell suspension of OD600=0.2 was seeded into a U-bottom-shaped 96 well plates by pipetting 100 μL per well in column 1-11, column 12 was filled with 100 μL medium as sterility control. The 96 well plates were sealed with adhesive polyethylene film for sealing microplates and incubated for 48 h at 37° C. at static conditions. After the biofilm growth phase, 100 μL of treatment solutions (method 1) were added to the vials resulting in treatment concentrations of 1 mM, 0.5 mM, 0.25 mM and 0.125 mM and with the respective concentration of Tween 80 and DMSO each at 0.63%, 0.32%, 0.16% and 0.08%. The same concentration was applied to four different wells of the same bacterial strain, resulting in four replicates for each concentration and strain. The treatment was incubated for 20 h at 37° C. at static conditions. After the treatment the supernatant was carefully removed and the well with the biofilm washed carefully for one time with 200 μL 0.9% saline solution. 200 μL saline solution was added and the biofilm was resuspended thoroughly. When fully homogenized then 20 μL was used for the first dilution in 180 μL 0.9% saline solution, which was prepared in a second plate. This dilution was continued until dilution step 10E−5 and 100 μL of the 10E−4 and 10E−5 dilution plated on a TSA plate. The TSA plates were incubated at 37° C. for 24 h. The colonies on the plates were enumerated, the colony forming units per mL of the dispensed biofilm and averages thereof and the log reduction in comparison with the untreated sample from the same wells plate calculated. Reduction of colony forming units goes hand in hand with the thickness of the biofilm and thus with the number bacteria that are present in the biofilm. Therefore, a significant reduction of colony forming units in the biofilm was defined at the value of log reduction ≥1 or more. This assay was repeated two times in two independent experiments)

[2] = tested on: Pseudomonas aeruginosa ATCC 27853; experiment: MIC assay (planktonic growth inhibition, OD600); assay type: cell-based, P. aeruginosa; conditions: for IC50 / IC90: Pseudomonas aeruginosa; for IC50: read-out: P. aeruginosa MIC50; for IC90: read-out: P. aeruginosa MIC90
Description: as §1
(§3) Frozen aliquots of Staphylococcus epidermis ATCC 35984 and Pseudomonas aeruginosa ATCC 27853 were used to inoculate a tryptic soy agar (TSA) plate and incubated overnight at 37° C. After incubation 3-5 well-isolated colonies with the same morphology were selected from the TSA plate and resuspended in 2 mL 0.9% saline solution with 3-6 glass beads and vortexed. The optical density at 600 nm (OD600) of the bacterial suspension was measured with a spectrophotometer (Evolution™ 201/220 UV-Visible Spectrophotometer, Thermo Fisher Scientific) and diluted to an OD600 of 0.0008, which resembles 10^6 CFU/mL.
(§4) The MIC assay was performed in a flat-bottom 96-microtiter plate. 50 μL of MHB-II was added into columns 2-11, and 100 μL to column 12 for sterility control. 100 μL of the 8 mM test compound solution (method 1) was added to column 1. A two-fold dilution series of the solution in MHB-II was achieved by resuspending 50 μL of the 8 mM solution from column 1 to column 2. This step was repeated until column 10. The respective concentration of Tween 80 and DMSO in column 1 was 2.5%, which is two-fold diluted throughout the plate. 50 μL of the bacterial suspension was added to column 1-11. The microtiter plates were sealed with adhesive polyethylene film for sealing microplates (Diversified Biotech) and incubated for 24 h at 37° C. After incubation the OD was measured at 600 nm with the Varioskan (Thermo Fisher Scientific). […] This assay was repeated three times in three independent experiments.

[3] = tested on: Staphylococcus epidermis ATCC 35984; experiment: MIC assay (planktonic growth inhibition, OD600); assay type: cell-based, S. epidermidis; conditions: for IC50: read-out: S. epidermidis MIC50; for IC90: read-out: S. epidermidis MIC90
Description: as §1, §3, §4

[4] = tested on: Staphylococcus epidermis ATCC 35984 biofilm; experiment: MBEC assay (biofilm eradication, CFU log reduction); assay type: cell-based, S. epidermidis; conditions: for minimal effective concentration: read-out: S. epidermidis MBEC mM with log reduction ≥1
Description: as §1, §2

udder cleft wound = experiment: In vivo udder cleft dermatitis test: wound assessment after spray treatment; set-up: species or system cow
Description: An example of a biofilm-related disorder is Udder Cleft Dermatitis (UCD), which relates to a chronic wound. In this Example, di-alkyl thiosulfonates, dialkyl thiosulfinates and di-alkyl disulfides were tested for their effect on cows affected by UCD.
Experiments were performed to examine the effect of various sprays containing water (control), a test compound, or a reference compound (CTC spray, which contains chlorotetracycline hydrochloride, and was obtained from Dechra veterinary products).
0.35 mL of the spray was sprayed on an udder cleft wound per treatment. Treatments took place once a day at t=0, at t=3 days and t=6 days. In Table 6, the assessment qualifications that are used in Table 7, are explained.

[5] = 48 h grown biofilm, 20 h treatment, CFU log reduction vs untreated
[6] = minimal concentration reducing final OD600 by 50%, 24 h at 37° C.
[7] = minimal concentration reducing final OD600 by 90%, 24 h at 37° C.
[8] = ATCC27853, 48 h grown biofilm, 20 h treatment, CFU log reduction vs untreated
[9] = ATCC27853, minimal concentration reducing final OD600 by 50%, 24 h at 37° C.
[10] = ATCC27853, minimal concentration reducing final OD600 by 90%, 24 h at 37° C.

Row | Compound | P. aeruginosa MBEC mM with log reduction ≥1 [1, 5] [mM] | P. aeruginosa MIC50 [2, 6] [µM] | P. aeruginosa MIC90 [2, 7] [µM] | S. epidermidis MIC50 [3, 6] [µM] | S. epidermidis MIC90 [3, 7] [µM] | S. epidermidis MBEC mM with log reduction ≥1 [4, 5] [mM] | also measured
1 | O=S(=O)(Cc1ccccc1)SCc1ccccc1 [Di-benzyl thiosulfonate] | 0.125 | 4000 | >4000 | 2000 | 4000 | 0.125 | –
2 | CCCCCCSSCCCCCC [Di-n-hexyl disulfide] | – | – | – | – | – | – | minimal effective concentration [1, 8]: > 1 mM; IC50 [2, 9]: > 4 mM; IC90 [2, 10]: > 4 mM; IC50 [3, 6]: > 4 mM; IC90 [3, 7]: > 4 mM; minimal effective concentration [4, 5]: > 1 mM
3 | CCCSSC [Methyl propyl disulfide] | – | – | – | – | – | – | minimal effective concentration [1, 8]: > 1 mM; IC50 [2, 9]: > 4 mM; IC90 [2, 10]: > 4 mM; IC50 [3, 6]: > 4 mM; IC90 [3, 7]: > 4 mM; minimal effective concentration [4, 5]: > 1 mM
4 | CCSSCC [Di-ethyl disulfide] | – | – | – | – | – | – | minimal effective concentration ([1]; ATCC27853, 20 h): > 1 mM; IC50 ([2]; ATCC27853, 24 h): > 4 mM; IC90 ([2]; ATCC27853, 24 h): > 4 mM; IC50 ([3]; 24 h): > 4 mM; IC90 ([3]; 24 h): > 4 mM; minimal effective concentration ([4]; 20 h): > 1 mM
5 | CCCSS(=O)(=O)c1ccc(C)cc1 [S-propyl-4-methylbenzene thiosulfonate] | >1 | 60 | 60 | 60 | 130 | 0.5 | –
6 | Bis(4-Fluorophenyl) thiosulfonate [Bis (4-fluorophenyl) thiosulfonate] | >1 | 2000 | 2000 | 250 | 2000 | >1 | –
7 | CCCCCCCCCCSSCCCCCCCCCC [Di-n-decyl disulfide] | – | – | – | – | – | – | minimal effective concentration [1, 8]: > 1 mM; IC50 [2, 9]: > 4 mM; IC90 [2, 10]: > 4 mM; IC50 [3, 6]: > 4 mM; IC90 [3, 7]: > 4 mM; minimal effective concentration [4, 5]: > 1 mM
8 | CSSC [Di-methyl disulfide] | – | – | – | – | – | – | minimal effective concentration ([1]; ATCC27853, 20 h): > 1 mM; IC50 ([2]; ATCC27853, 24 h): > 4 mM; IC90 ([2]; ATCC27853, 24 h): > 4 mM; IC50 ([3]; 24 h): > 4 mM; IC90 ([3]; 24 h): > 4 mM; minimal effective concentration ([4]; 20 h): > 1 mM
9 | Bis(4-fluorophenyl) thiosulfinate [Bis (4-fluorophenyl) thiosulfinate] | >1 | 1000 | 4000 | 125 | 250 | >1 | –
10 | Bis(4-Chlorophenyl) thiosulfonate [Bis (4-chlorophenyl) thiosulfonate] | >1 | 250 | 2000 | 30 | 60 | >1 | –
11 | CCCCCCCCCCS[S+]([O-])CCCCCCCCCC (centres unmarked) [S-decyl-1-decane thiosulfinate] | >1 | >4000 | >4000 | >4000 | >4000 | >1 | –
12 | CCCCS[S+]([O-])CCCC (centres unmarked) [Di-n-butyl thiosulfinate, S-butyl butane-1-sulfinothioate] | – | – | – | – | – | – | inflammation of the udder cleft wound after treatment (udder cleft wound; immediately after the treatment, later infection reduced and wound healed): fast inflammation reduction; Conclusion (effect on udder cleft wound) (udder cleft wound; over 60 days, all cows of the group): Positive effect
13 | Di-isopropyl thiosulfonate | >1 | 2000 | 2000 | 2000 | 2000 | >1 | –
14 | Bis(4-chlorophenyl) thiosulfinate [Bis (4-chlorophenyl) thiosulfinate] | >1 | 20 | 20 | 20 | 20 | >1 | –
15 | c1coc(CSSCc2ccco2)c1 [Di-furfuryl disulfide] | – | – | – | – | – | – | minimal effective concentration [1, 8]: > 1 mM; IC50 [2, 9]: 2 mM; IC90 [2, 10]: > 4 mM; IC50 [3, 6]: 2 mM; IC90 [3, 7]: > 4 mM; minimal effective concentration [4, 5]: > 1 mM
